For 13 molecules, EC50 results are on record in patent US12643882B2, “Inhibitors of human respiratory syncytial virus and metapneumovirus” (priority 2022, dated 2026).

Where two headings read alike, the source gives them in different places.

One experiment deals with RSV-A2-GFP virus. Nature of the experiment: microbe, parasite or virus in culture. Format: cell-based, Human Respiratory Syncytial Virus. The method, then: To set up the assay, ARF vials were thawed in a 37° C. water bath and a control compound was resuspended in assay media DMEM (Dulbecco's Modified Eagle Medium) containing 2% FBS, 100 U/ml Penicillin-Streptomycin.
GFP sequence was derived from pJTI™ R4 Dest CMV N-EmGFP pA Vector (Invitrogen) and was cloned into the intergenic sequence between wild-type RSV-A2 P and M genes using standard recombineering techniques. Recombinant RSV-A2-GFP was propagated in Hep2 cells (human cells contain HeLa marker chromosomes and were derived via HeLa contamination, ATCC CCL-23) with a Multiplicity of Infection (MOI) of 0.1. Virus was harvested 3 days after infection by collecting all culture material and then freeze-thawing the mixture for 5 min. Working virus stocks were generated by thawing frozen viral cultures in 37° C. water bath, which were centrifuged at 218 g for 15 min at 4° C. 1/10 of 10×SPG (Biological Industries 06-3061-01-5A) were added and then mixed. The supernatant was aliquoted, frozen in liquid nitrogen, and then transferred to a −80° C. freezer for storage. Virus titer was determined by automated plaque assay in HEp-2 cells following methods described previously (Wen Z. et al.; 2019).
Calu-1 cells were purchased from ATCC (Cat #HTB-54) and were expanded in growth media (DMEM containing 10% FBS, 100 U/ml Penicillin-Streptomycin). To make ARF, cell culture media was removed and discarded and the cell layer was briefly rinsed with PBS to remove serum. 2.5 mL of TrypLE Express solution were added and cells incubated until dislodged, to which growth media was added and the cells were resuspended by gentle pipetting. Cells were counted for concentration and viability as determined by ViCell. Cells were centrifuged at RT, 300 g for 5 minutes to pellet cells. The supernatant was gently aspirated and the pellet was flicked to loosen cells. Cells were resuspended in an appropriate volume of freezing medium (DMEM containing 10% DMSO, 10% FBS, 100 U/ml Penicillin-Streptomycin) to achieve a concentration of 5×10^6 cells/mL. 1 mL aliquots of the cell suspension were transferred to freezing vials. The vials were put into an upright container in a −80° C. freezer overnight before transferring vials to liquid nitrogen for storage.
Assay ready freezedown (ARF, generation described separately) Calu-1 cells (ATCC HTB-54) were used. Compound plates were prepared by dispensing compounds dissolved in DMSO into the wells of a 384 well Corning® 3985 plate with an ECHO acoustic dispenser and compounds were tested in 10-point serial 3-fold dilution. […] To set up the assay, ARF vial(s) were thawed in a 37° C. water bath and were then resuspended into assay media (DMEM containing 2% FBS, 100 U/ml Penicillin-Streptomycin). Cells were counted using default parameters on ViCell and diluted to 20,000 cells/mL in assay media. RSV-A2-GFP virus was added to cells at 24,000 pfu/ml (MOI=1.2) and mixed by gentle inversion. 10 μL/well of 100% DMSO was dispensed as CellTiter-Glo (CTG) assay Max_E controls wells. The cells were dispensed at 50 μL/well using Bravo with 50 μL filtered tips into compound plates. Plates were covered with MicroClime lids, loaded with 7.5 mL of assay media to minimize evaporation, and were incubated at 37° C. and 5% CO2 for 96 hrs. Following incubation, distinct, GFP-expressing cells were counted using an Acumen imaging system with appropriate settings. A same-well CTG assay was performed by adding 10 μL/well reconstituted CellTiter-Glo reagent (Promega G7573) and plates were read on PerkinElmer Envision according to manufacturer's instructions. Raw data were loaded and analyzed in ActivityBase. Antiviral IC50 and cytotoxicity CC50 values were determined using a 4 parameter logistic fit based on the Levenberg-Marquardt algorithm. Model: 205-4 Parameter Logistic.

A further experiment has as its system hMPV-GFP virus. Nature of the experiment: microbe, parasite or virus in culture. Format: cell-based, human metapneumovirus. The method, then:
GFP expressing rgHMPV #3 p3 was generated in Dr. Buchholz's lab (Biacchesi S. et al., J Virol. 2007 June; 81(11): 6057-6067) and propagated in VERO cells (ATCC Cat #CCL-81) with a Multiplicity of Infection (MOI) of 0.1. Virus was harvested 4 days after infection by collecting cultured material and was freeze-thaw cycled in liquid nitrogen twice. Working virus stocks were generated from thawing frozen samples in 37° C. water bath, which were centrifuged at 218 g for 15 min at 4° C. 1/10 of 10×SPG (Biological Industries 06-3061-01-5A) were added and then mixed. The supernatant was aliquoted, frozen in liquid nitrogen, and then transferred to a −80° C. freezer for storage. Virus titer was determined by performing titration test in 96-well plates and calculate approximate virus titer using GFP event/well data.
Compound plates were prepared by dispensing compounds dissolved in DMSO into wells of a 384 well Corning 3985 polystyrene flat clear bottom optical imaging microplate (202.5 nL/well) using an ECHO acoustic dispenser. Each compound was tested in 10-point serial 3-fold dilution (typical final concentrations: 40,300 nM-2 nM). […] Continuous culture of VERO cells was maintained in complete culture media (OptiMEM supplemented with 2 mM GlutaMAX™ and 100 U/ml Penicillin-Streptomycin). To set up the assay, VERO cells were trypsinized with 0.25% Trypsin-EDTA until cells were dislodged, then cells were re-suspended with 1 mL FBS. Cells were spun down at 300 g for 5 minutes and cells were washed twice with culture media and counted using default parameters on ViCell. Cells were then diluted to 100,000 cells/mL (5,000 cells/50 μL) in complete culture media+TrypLE Select (80 μL/mL). hMPV-GFP virus was added to cells at 125,000 pfu/mL (MOI=1.25) and were mixed by gentle inversion. 10 μL/well of 100% DMSO was dispensed to CellTiter-Glo (CTG) assay Max_E controls wells. Cells were dispensed at 50 μL/well using Bravo and 50 μL filtered tips into compound plates. Plates were covered with MicroClime lids and loaded with 7.5 mL of assay media to minimize evaporation. Plates were lightly shaken for 10 minutes at room temperature and then incubated at 37° C. and 5% CO2 for 48 hrs. Following incubation, distinct GFP-expressing cells were counted using an Acumen imaging system with appropriate settings. A same-well CTG assay was performed by adding 10 μL/well reconstituted CellTiter-Glo reagent (Promega G7573) and plates were read on PerkinElmer Envision according to manufacturer's instructions. Raw data were loaded and analyzed in ActivityBase. Antiviral IC50 and cytotoxicity CC50 values were determined using a 4 parameter logistic fit based on the Levenberg-Marquardt algorithm. Model: 205-4 Parameter Logistic. • References: Wen Z, Citron M, Bett A J, Espeseth A S, Vora K A, Zhang L, DiStefano D J. Development and application of a higher throughput RSV plaque assay by immunofluorescent imaging. J Virol Methods. 2019 January; 263:88-95. doi: 10.1016/j.jviromet.2018.10.022. Epub 2018 Oct. 28. PMD: 30381239. • Biacchesi S, Murphy B R, Collins P L, Buchholz U J. Frequent frameshift and point mutations in the SH gene of human metapneumovirus passaged in vitro. J Virol. 2007 June; 81(11):6057-67. doi: 10.1128/JVL.00128-07. Epub 2007 Mar. 21. PMID: 17376897; PMCID: MC 1900297. Assay Data

Setting [1] is: read-out: RSV EC50, Calu-1 cells infected with RSV-A2-GFP, 96 hrs, GFP-expressing cells counted.
[2] abbreviates: read-out: hMPV EC50, VERO cells infected with hMPV-GFP, 48 hrs, GFP-expressing cells counted.
Where [3] appears, read: Calu-1 cells infected with RSV-A2-GFP, 96 hrs, GFP-expressing cells counted, read-out: RSV EC50.
Where [4] appears, read: VERO cells infected with hMPV-GFP, 48 hrs, GFP-expressing cells counted, read-out: hMPV EC50.
Setting [5] is: human respiratory syncytial virus, Calu-1, 96 h, read-out: RSV EC50, Calu-1 cells infected with RSV-A2-GFP, 96 hrs, GFP-expressing cells counted.
Where [6] appears, read: human metapneumovirus, Vero, 48 h, read-out: hMPV EC50, VERO cells infected with hMPV-GFP, 48 hrs, GFP-expressing cells counted.

The term EC50 denotes the concentration needed to bring the measured effect to its halfway point. `Cc1nn(-c2ncccn2)cc1C(=O)N1C[C@H]2[C@H](Oc3cc(C(C)(C)N)cc(-c4ccc(F)cc4)n3)[C@@]2(C)C1` (single isomer, unassigned; enantiomer 2) [Example 107B]: the concentration for a half-maximal effect (EC50) was under 0.01 µM in the experiment with RSV-A2-GFP virus (setting [1]) and over 0.1 µM in the experiment on hMPV-GFP virus (setting [2]).

Turning to `Cn1nc(-c2ncccn2)cc1C(=O)N1C[C@H]2[C@H](Oc3cc(C(C)(C)N)cc(-c4ccc(F)cc4F)n3)[C@@]2(C)C1` (single isomer, unassigned; enantiomer 2) [Example 108B], the EC50 was under 0.01 µM in the experiment on RSV-A2-GFP virus (setting [1]) and over 0.1 µM in the experiment on hMPV-GFP virus (setting [2]).

As to `Cc1nn(-c2ncccn2)cc1C(=O)N1C[C@H]2[C@H](Oc3cc(C(C)(C)N)cc(-c4ccc(F)cc4F)n3)[C@@]2(C)C1` (single isomer, unassigned; enantiomer 2) [Example 109B], the figures for the EC50 with RSV-A2-GFP virus (setting [1]) and in the experiment on hMPV-GFP virus (setting [2]) were under 0.01 µM and 0.01 to 0.1 µM, respectively.

Turning to `Cn1nc(-c2ncccn2)cc1C(=O)N1C[C@H]2[C@H](Oc3cc(C(C)(C)N)cc(-c4ccc(C(F)(F)F)cc4)n3)[C@@]2(C)C1` (single isomer, unassigned; enantiomer 2) [Example 110B], the EC50 is under 0.01 µM in the experiment on RSV-A2-GFP virus (setting [1]) and over 0.1 µM with hMPV-GFP virus (setting [2]).

`Cc1nn(-c2ncccn2)cc1C(=O)N1C[C@H]2[C@H](Oc3cc(C(C)(C)N)cc(-c4ccc(C(F)(F)F)cc4)n3)[C@@]2(C)C1` (single isomer, unassigned; enantiomer 2) [Example 111B]: the EC50 was under 0.01 µM in the experiment on RSV-A2-GFP virus (setting [1]) and 0.01 to 0.1 µM in the experiment on hMPV-GFP virus (setting [2]).

For `Cc1nc(-c2ncccn2)sc1C(=O)N1C[C@@H]2C(Oc3cc(C(C)(N)CO)cc(-c4ccc(F)cc4)n3)[C@@H]2C1` (single isomer, unassigned; enantiomer 2) [Example 113B], the EC50 with RSV-A2-GFP virus (setting [3]) is under 0.01 µM; in the experiment with hMPV-GFP virus (setting [4]), over 0.1 µM.

With `CCC(C)(N)c1cc(OC2[C@H]3CN(C(=O)c4cn(-c5ncccn5)nc4C)C[C@@H]23)nc(-c2ccc(F)cc2)c1` (single isomer, unassigned; enantiomer 2) [Example 116B], the concentration giving a half-maximal response (EC50) is under 0.01 µM with RSV-A2-GFP virus (setting [3]) and over 0.1 µM with hMPV-GFP virus (setting [4]).

For the molecule `Cc1nc(-c2ncccn2)sc1C(=O)N1C[C@@H]2[C@H](C1)[C@H]2Nc1cc(C(C)(C)N)cc(-c2ccc(F)cc2)n1` [Example 7, ((1R,5S,6s)-6-((4-(2-aminopropan-2-yl)-6-(4-fluorophenyl)pyridin-2-yl)amino)-3-azabicyclo[3.1.0]hexan-3-yl)(4-methyl-2-(pyrimidin-2-yl)thiazol-5-yl)methanone], the EC50 in the experiment with RSV-A2-GFP virus (setting [5]) is under 0.01 µM; with hMPV-GFP virus (setting [6]), over 0.1 µM.

As to `Cc1nc(-c2ncccn2)sc1C(=O)N1C[C@@H]2[C@H](C1)[C@H]2Oc1cc(C(C)(C)N)cc(-c2ccc(F)cc2)n1` [Example 8, ((1R,5S,6s)-6-((4-(2-aminopropan-2-yl)-6-(4-fluorophenyl)pyridin-2-yl)oxy)-3-azabicyclo[3.1.0]hexan-3-yl)(4-methyl-2-(pyrimidin-2-yl)thiazol-5-yl)methanone], the results for the 50% effective concentration (EC50) in the experiment on RSV-A2-GFP virus (setting [5]) and in the experiment on hMPV-GFP virus (setting [6]) were under 0.01 µM and 0.01 to 0.1 µM, respectively.

Turning to `CC(C)(N)c1cc(O[C@H]2[C@@H]3CN(C(=O)c4cnc(-c5ncccn5)s4)C[C@@H]32)nc(-c2ccc(F)cc2)c1` [Example 9, ((1R,5S,6s)-6-((4-(2-aminopropan-2-yl)-6-(4-fluorophenyl)pyridin-2-yl)oxy)-3-azabicyclo[3.1.0]hexan-3-yl)(2-(pyrimidin-2-yl)thiazol-5-yl)methanone], the EC50 was under 0.01 µM in the experiment on RSV-A2-GFP virus (setting [5]) and over 0.1 µM in the experiment on hMPV-GFP virus (setting [6]).

On to `CCc1nc(-c2ncccn2)sc1C(=O)N1C[C@@H]2[C@H](C1)[C@H]2Oc1cc(C(C)(C)N)cc(-c2ccc(F)cc2)n1` [Example 10, ((1R,5S,6s)-6-((4-(2-aminopropan-2-yl)-6-(4-fluorophenyl)pyridin-2-yl)oxy)-3-azabicyclo[3.1.0]hexan-3-yl)(4-ethyl-2-(pyrimidin-2-yl)thiazol-5-yl)methanone], for which the EC50 in the experiment on RSV-A2-GFP virus (setting [3]) is under 0.01 µM; in the experiment with hMPV-GFP virus (setting [4]), 0.01 to 0.1 µM.

Turning to `CC(C)(N)c1cc(O[C@H]2[C@@H]3CN(C(=O)c4sc(-c5ncccn5)nc4C(F)(F)F)C[C@@H]32)nc(-c2ccc(F)cc2)c1` [Example 11, ((1R,5S,6s)-6-((4-(2-aminopropan-2-yl)-6-(4-fluorophenyl)pyridin-2-yl)oxy)-3-azabicyclo[3.1.0]hexan-3-yl)(2-(pyrimidin-2-yl)-4-(trifluoromethyl)thiazol-5-yl)methanone], the EC50 was under 0.01 µM in the experiment with RSV-A2-GFP virus (setting [3]) and over 0.1 µM in the experiment on hMPV-GFP virus (setting [4]).

With `Cc1nc(-c2ccccn2)sc1C(=O)N1C[C@@H]2[C@H](C1)[C@H]2Oc1cc(C(C)(C)N)cc(-c2ccc(F)cc2)n1` [Example 12, ((1R,5S,6s)-6-((4-(2-aminopropan-2-yl)-6-(4-fluorophenyl)pyridin-2-yl)oxy)-3-azabicyclo[3.1.0]hexan-3-yl)(4-methyl-2-(pyridin-2-yl)thiazol-5-yl)methanone], the concentration giving a half-maximal response (EC50) in the experiment with RSV-A2-GFP virus (setting [3]) was under 0.01 µM; in the experiment on hMPV-GFP virus (setting [4]), over 0.1 µM.
